Laboratory results from ChEMBL document CHEMBL3885861, “Open TG-GATES”.

Organism: Rattus norvegicus
Assay: Open TG-GATES - Regimen: Single
Assay type: toxicity, organism-based, Sprague-Dawley
Parameters: regimen Single, gender Male, age 6 weeks
Details: in vivo, po, 300 mg/kg, route gavage, dose level Middle; for APTT / Bas / Eos / Fbg / Hb / Ht / Lym / MCH / MCHC / MCV / Mono / Neu / PT / Plat / RBC / Ret / WBC: tissue Blood; for KIDNEY_L / KIDNEY_R / KIDNEY_TOTAL: tissue Kidney; for LIVER: tissue Liver; for A/G / ALP / ALT / AST / BUN / CRE / Ca / Cl / DBIL / GLC / IP / K / LDH / Na / PL / RALB / TBIL / TC / TG / TP / gamma-GTP: tissue Plasma

Compound: COc1ccc(Cl)cc1C(=O)NCCc1ccc(S(=O)(=O)NC(=O)NC2CCCCC2)cc1 [GLYBURIDE]
- TERMINAL_BW (3 h): 217.4 g
- APTT (3 h): 18.5 s
- Bas (3 h): 0%
- Eos (3 h): 1%
- Fbg (3 h): 239 mg/dL
- Hb (3 h): 13.3 g/dL
- Ht (3 h): 40.4%
- Lym (3 h): 72%
- MCH (3 h): 20.3 pg
- MCHC (3 h): 32.9%
- MCV (3 h): 61.7 fL
- Mono (3 h): 2.6%
- Neu (3 h): 23.8%
- PT (3 h): 12.6 s
- Plat (3 h): 139.4 x10_4/uL
- RBC (3 h): 655.2 x10_4/ul
- Ret (3 h): 8.6%
- WBC (3 h): 79 x10_2/uL
- KIDNEY_L (3 h): 1 g
- KIDNEY_R (3 h): 1 g
- KIDNEY_TOTAL (3 h): 1.9 g
- LIVER (3 h): 9.7 g
- A/G (3 h): 1.5
- ALP (3 h): 1040 IU/L
- ALT (3 h): 46.4 IU/L
- AST (3 h): 70.8 IU/L
- BUN (3 h): 12.2 mg/dL
- CRE (3 h): 0.3 mg/dL
- Ca (3 h): 10.8 mg/dL
- Cl (3 h): 103.6 meq/L
- DBIL (3 h): 0.1 mg/dL
- GLC (3 h): 136.4 mg/dL
- IP (3 h): 8.7 mg/dL
- K (3 h): 3.7 meq/L
- LDH (3 h): 143.8 IU/L
- Na (3 h): 141.2 meq/L
- PL (3 h): 165.8 mg/dL
- RALB (3 h): 3.5 g/dL
- TBIL (3 h): 0.2 mg/dL
- TC (3 h): 82.4 mg/dL
- TG (3 h): 88 mg/dL
- TP (3 h): 5.7 g/dL
- gamma-GTP (3 h): 1 IU/L
- TERMINAL_BW (6 h): 216.4 g
- APTT (6 h): 18.7 s
- Bas (6 h): 0%
- Eos (6 h): 0.8%
- Fbg (6 h): 215.8 mg/dL
- Hb (6 h): 13.4 g/dL
- Ht (6 h): 41%
- Lym (6 h): 74.4%
- MCH (6 h): 20.7 pg
- MCHC (6 h): 32.6%
- MCV (6 h): 63.6 fL
- Mono (6 h): 3%
- Neu (6 h): 21%
- PT (6 h): 12.9 s
- Plat (6 h): 123.3 x10_4/uL
- RBC (6 h): 645.6 x10_4/ul
- Ret (6 h): 8.3%
- WBC (6 h): 114.4 x10_2/uL
- KIDNEY_L (6 h): 1 g
- KIDNEY_R (6 h): 0.9 g
- KIDNEY_TOTAL (6 h): 1.9 g
- LIVER (6 h): 9.6 g
- A/G (6 h): 1.6
- ALP (6 h): 903.6 IU/L
- ALT (6 h): 33.6 IU/L
- AST (6 h): 62.2 IU/L
- BUN (6 h): 11.8 mg/dL
- CRE (6 h): 0.3 mg/dL
- Ca (6 h): 10.8 mg/dL
- Cl (6 h): 103.6 meq/L
- DBIL (6 h): 0.1 mg/dL
- GLC (6 h): 161.4 mg/dL
- IP (6 h): 9 mg/dL
- K (6 h): 3.8 meq/L
- LDH (6 h): 134.8 IU/L
- Na (6 h): 140.8 meq/L
- PL (6 h): 139.2 mg/dL
- RALB (6 h): 3.4 g/dL
- TBIL (6 h): 0.2 mg/dL
- TC (6 h): 72.4 mg/dL
- TG (6 h): 69.4 mg/dL
- TP (6 h): 5.7 g/dL
- gamma-GTP (6 h): 0.8 IU/L
- TERMINAL_BW (9 h): 213.5 g
- APTT (9 h): 19.3 s
- Bas (9 h): 0%
- Eos (9 h): 1%
- Fbg (9 h): 234.8 mg/dL
- Hb (9 h): 13.4 g/dL
- Ht (9 h): 41%
- Lym (9 h): 67.8%
- MCH (9 h): 20.7 pg
- MCHC (9 h): 32.8%
- MCV (9 h): 63.2 fL
- Mono (9 h): 3%
- Neu (9 h): 27.4%
- PT (9 h): 12.6 s
- Plat (9 h): 119.4 x10_4/uL
- RBC (9 h): 648.6 x10_4/ul
- Ret (9 h): 7.9%
- WBC (9 h): 119.6 x10_2/uL
- KIDNEY_L (9 h): 0.9 g
- KIDNEY_R (9 h): 1 g
- KIDNEY_TOTAL (9 h): 1.9 g
- LIVER (9 h): 9.4 g
- A/G (9 h): 1.5
- ALP (9 h): 926.6 IU/L
- ALT (9 h): 35.8 IU/L
- AST (9 h): 65.2 IU/L
- BUN (9 h): 12.2 mg/dL
- CRE (9 h): 0.3 mg/dL
- Ca (9 h): 10.6 mg/dL
- Cl (9 h): 102.8 meq/L
- DBIL (9 h): 0.086 mg/dL
- GLC (9 h): 148.4 mg/dL
- IP (9 h): 10.2 mg/dL
- K (9 h): 3.6 meq/L
- LDH (9 h): 133.6 IU/L
- Na (9 h): 141.6 meq/L
- PL (9 h): 149.2 mg/dL
- RALB (9 h): 3.5 g/dL
- TBIL (9 h): 0.1 mg/dL
- TC (9 h): 76.2 mg/dL
- TG (9 h): 58.6 mg/dL
- TP (9 h): 5.8 g/dL
- gamma-GTP (9 h): 1.8 IU/L
- TERMINAL_BW (24 h): 225 g
- APTT (24 h): 18.1 s
- Bas (24 h): 0.2%
- Eos (24 h): 1%
- Fbg (24 h): 220.2 mg/dL
- Hb (24 h): 12.9 g/dL
- Ht (24 h): 37.9%
- Lym (24 h): 82.6%
- MCH (24 h): 21.5 pg
- MCHC (24 h): 33.9%
- MCV (24 h): 63.5 fL
- Mono (24 h): 1.8%
- Neu (24 h): 14%
- PT (24 h): 12.5 s
- Plat (24 h): 119.5 x10_4/uL
- RBC (24 h): 597.4 x10_4/ul
- Ret (24 h): 6.6%
- WBC (24 h): 91.9 x10_2/uL
- KIDNEY_L (24 h): 1 g
- KIDNEY_R (24 h): 1 g
- KIDNEY_TOTAL (24 h): 2 g
- LIVER (24 h): 10.4 g
- A/G (24 h): 1.7
- ALP (24 h): 931.4 IU/L
- ALT (24 h): 36.2 IU/L
- AST (24 h): 65 IU/L
- BUN (24 h): 15.8 mg/dL
- CRE (24 h): 0.4 mg/dL
- Ca (24 h): 10.7 mg/dL
- Cl (24 h): 102.4 meq/L
- DBIL (24 h): 0.088 mg/dL
- GLC (24 h): 202 mg/dL
- IP (24 h): 8.3 mg/dL
- K (24 h): 3.5 meq/L
- LDH (24 h): 182.2 IU/L
- Na (24 h): 141.8 meq/L
- PL (24 h): 144.4 mg/dL
- RALB (24 h): 3.4 g/dL
- TBIL (24 h): 0.1 mg/dL
- TC (24 h): 79 mg/dL
- TG (24 h): 62.6 mg/dL
- TP (24 h): 5.4 g/dL
- gamma-GTP (24 h): 1.4 IU/L
